Measured values taken from patent US6737383B1, “Herbicidal oxadiazolidines” (priority 1999, dated 2004).

Columns and labels:
sugar beet = assay: Test B pre/postemergence sugar beet; format: in vivo, Beta vulgaris
Outline: (§1)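 Test chemicals in a non-phytotoxic solvent mixture with surfactant were sprayed preemergence onto planted seeds and postemergence onto plants 2 to 18 cm tall (1- to 4-leaf stage). After twelve to sixteen days in a greenhouse, injury was visually rated against untreated controls from 0 (no effect) to 10 (complete control).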

soybean = assay: Test B pre/postemergence soybean; format: in vivo, Glycine max
Outline: as §1

giant foxtail = assay: Test B pre/postemergence giant foxtail; format: in vivo, Setaria faberii
Outline: as §1

bedstraw = assay: Test B pre/postemergence bedstraw; format: in vivo, Galium aparine
Outline: as §1

bamyardgrass = assay: Test B flood test barnyardgrass; format: in vivo, Echinochloa crus-galli
Outline: (§2)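 Read-out is a visual response score from 0 (no effect) to 10 (complete control), assigned by comparison with untreated controls. Treatment was applied at the 2-leaf stage, and plants stayed in the greenhouse for twelve to sixteen days before scoring.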

pigweed = assay: Test B pre/postemergence pigweed; format: in vivo, Amaranthus retroflexus
Outline: as §1

morningglory = assay: Test B pre/postemergence morningglory; format: in vivo, Ipomoea hederacea
Outline: as §1

surinam grass = assay: Test B pre/postemergence surinam grass; format: in vivo, Brachiaria decumbens
Outline: as §1

smallflower flatsedge = assay: Test B flood test smallflower flatsedge; format: in vivo, Cyperus difformis
Outline: as §2

duck salad = assay: Test B flood test duck salad; format: in vivo, Heteranthera limosa
Outline: as §2

velvetleaf = assay: Test B pre/postemergence velvetleaf; format: in vivo, Abutilon theophrasti
Outline: as §1

blackgrass = assay: Test B pre/postemergence blackgrass; format: in vivo, Alopecurus myosuroides
Outline: as §1

corn = assay: Test B pre/postemergence corn; format: in vivo, Zea mays
Outline: as §1

rice = assay: Test B flood test rice; format: in vivo, Oryza sativa
Outline: as §2

purple nutsedge = assay: Test B pre/postemergence purple nutsedge; format: in vivo, Cyperus rotundus
Outline: as §1

rape = assay: Test B pre/postemergence rape; format: in vivo, Brassica napus
Outline: as §1

[1] = Postemergence, Rate 125 g/ha, scale of 0 to 10 where 0 is no effect and 10 is complete control
[2] = Preemergence, Rate 62 g/ha, scale 0 to 10 (0 no effect, 10 complete control)
[3] = Preemergence, Rate 125 g/ha, 0 is no effect, 10 is complete control
[4] = Preemergence, Rate 250 g/ha, scale 0 to 10, 0 is no effect, 10 is complete control
[5] = Preemergence, Rate 500 g/ha, scale 0 to 10 (0 no effect, 10 complete control)
[6] = Rate 62 g/ha, Postemergence, scale of 0 to 10 where 0 is no effect and 10 is complete control
[7] = Rate 250 g/ha, Postemergence, scale 0 to 10, 0 is no effect, 10 is complete control
[8] = Rate 500 g/ha, Postemergence, scale 0 to 10
[9] = Postemergence (flood test species), Rate 125 g/ha, scale of 0 to 10 where 0 is no effect and 10 is complete control
[10] = Rate 62 g/ha, Postemergence section, flood test species, scale of 0 to 10 where 0 is no effect and 10 is complete control
[11] = Rate 250 g/ha, Postemergence (flood test), scale 0 to 10, 0 is no effect, 10 is complete control
[12] = Rate 500 g/ha, listed under Postemergence (flood test species), scale 0 to 10

CC(C)N(C(=O)n1oc(=O)n(CCCl)c1=O)c1ccc(F)cc1 [Compound 148]
Sugarbeets plant response rating (sugar beet; [1]): 3 | Sugarbeets plant response rating (sugar beet; [2]): 4 | Sugarbeets plant response rating (0 to 10 scale) (sugar beet; [3]): 6 | Sugarbeets plant response rating (sugar beet; [4]): 8 | Sugarbeets plant response rating (sugar beet; [5]): 10 | Sugarbeets plant response rating (sugar beet; [6]): 2 | Plant response rating, Sugarbeets (sugar beet; [7]): 4 | Sugarbeets plant response rating (sugar beet; [8]): 4 | Soybean plant response rating (soybean; [1]): 4 | Soybean plant response rating (soybean; [2]): 0 | Soybean plant response rating (0 to 10 scale) (soybean; [3]): 0 | Soybean plant response rating (soybean; [4]): 0 | Soybean plant response rating (soybean; [5]): 0 | Soybean plant response rating (soybean; [6]): 4 | Plant response rating, Soybean (soybean; [7]): 4 | Soybean plant response rating (soybean; [8]): 5 | Giant foxtail plant response rating (giant foxtail; [1]): 8 | Giant foxtail plant response rating (giant foxtail; [2]): 7 | Giant foxtail plant response rating (0 to 10 scale) (giant foxtail; [3]): 9 | Giant foxtail plant response rating (giant foxtail; [4]): 9 | Giant foxtail plant response rating (giant foxtail; [5]): 10 | Giant foxtail plant response rating (giant foxtail; [6]): 5 | Plant response rating, Giant foxtail (giant foxtail; [7]): 8 | Giant foxtail plant response rating (giant foxtail; [8]): 9 | Bedstraw plant response rating (bedstraw; [1]): 5 | Bedstraw plant response rating (bedstraw; [2]): 0 | Bedstraw plant response rating (0 to 10 scale) (bedstraw; [3]): 0 | Bedstraw plant response rating (bedstraw; [4]): 0 | Bedstraw plant response rating (bedstraw; [5]): 2 | Bedstraw plant response rating (bedstraw; [6]): 2 | Plant response rating, Bedstraw (bedstraw; [7]): 6 | Bedstraw plant response rating (bedstraw; Rate 500 g/ha, Postemergence, scale 0 to 10, 0 no effect, 10 complete control): 6 | Barnyardgrass plant response rating (bamyardgrass; [9]): 0 | Barnyardgrass plant response rating (bamyardgrass; [10]): 0 | Plant response rating, Barnyardgrass (bamyardgrass; [11]): 0 | Barnyardgrass plant response rating (bamyardgrass; Rate 500 g/ha, listed under Postemergence (flood test species), scale 0 to 10, 0 no effect, 10 complete control): 4 | Redroot pigweed plant response rating (pigweed; [1]): 2 | Redroot pigweed plant response rating (pigweed; [2]): 7 | Redroot pigweed plant response rating (0 to 10 scale) (pigweed; [3]): 9 | Redroot pigweed plant response rating (pigweed; [4]): 9 | Redroot pigweed plant response rating (pigweed; [5]): 10 | Redroot pigweed plant response rating (pigweed; [6]): 2 | Redroot pigweed plant response rating (pigweed; [8]): 5 | Morningglory plant response rating (morningglory; [1]): 3 | Morningglory plant response rating (morningglory; [2]): 0 | Morningglory plant response rating (0 to 10 scale) (morningglory; [3]): 0 | Morningglory plant response rating (morningglory; [4]): 0 | Morningglory plant response rating (morningglory; [5]): 1 | Morningglory plant response rating (morningglory; [6]): 3 | Plant response rating, Morningglory (morningglory; [7]): 3 | Morningglory plant response rating (morningglory; [8]): 5 | B. signalgrass plant response rating (surinam grass; [1]): 3 | B. signalgrass plant response rating (surinam grass; [2]): 0 | B. signalgrass plant response rating (0 to 10 scale) (surinam grass; [3]): 5 | B. signalgrass plant response rating (surinam grass; [4]): 7 | B. signalgrass plant response rating (surinam grass; [5]): 7 | B. signalgrass plant response rating (surinam grass; [6]): 0 | Plant response rating, B. signalgrass (surinam grass; [7]): 5 | B. signalgrass plant response rating (surinam grass; Rate 500 g/ha, Postemergence, scale of 0 to 10 where 0 is no effect and 10 is complete control): 7 | S. Flatsedge plant response rating (smallflower flatsedge; [9]): 0 | S. Flatsedge plant response rating (smallflower flatsedge; [10]): 0 | Plant response rating, S. Flatsedge (smallflower flatsedge; [11]): 0 | S. Flatsedge plant response rating (smallflower flatsedge; [12]): 2 | Ducksalad plant response rating (duck salad; [9]): 0 | Ducksalad plant response rating (duck salad; [10]): 0 | Plant response rating, Ducksalad (duck salad; [11]): 0 | Ducksalad plant response rating (duck salad; [12]): 0 | Velvetleaf plant response rating (velvetleaf; [1]): 0 | Velvetleaf plant response rating (velvetleaf; [2]): 0 | Velvetleaf plant response rating (0 to 10 scale) (velvetleaf; [3]): 6 | Velvetleaf plant response rating (velvetleaf; [4]): 8 | Velvetleaf plant response rating (velvetleaf; [5]): 8 | Velvetleaf plant response rating (velvetleaf; [6]): 0 | Plant response rating, Velvetleaf (velvetleaf; [7]): 0 | Velvetleaf plant response rating (velvetleaf; [8]): 1 | Blackgrass plant response rating (blackgrass; [1]): 7 | Blackgrass plant response rating (blackgrass; [2]): 4 | Blackgrass plant response rating (0 to 10 scale) (blackgrass; [3]): 4 | Blackgrass plant response rating (blackgrass; [4]): 7 | Blackgrass plant response rating (blackgrass; [5]): 9 | Blackgrass plant response rating (blackgrass; [6]): 5 | Plant response rating, Blackgrass (blackgrass; [7]): 7 | Blackgrass plant response rating (blackgrass; [8]): 7 | Corn plant response rating (corn; [1]): 0 | Corn plant response rating (corn; [2]): 0 | Corn plant response rating (0 to 10 scale) (corn; [3]): 0 | Corn plant response rating (corn; [4]): 0 | Corn plant response rating (corn; [5]): 0 | Corn plant response rating (corn; [6]): 0 | Plant response rating, Corn (corn; [7]): 0 | Corn plant response rating (corn; [8]): 0 | Rice plant response rating (rice; [9]): 0 | Rice plant response rating (rice; [10]): 0 | Plant response rating, Rice (rice; [11]): 0 | Rice plant response rating (rice; [12]): 0 | Nutsedge plant response rating (purple nutsedge; [1]): 0 | Nutsedge plant response rating (purple nutsedge; [2]): 0 | Nutsedge plant response rating (0 to 10 scale) (purple nutsedge; [3]): 0 | Nutsedge plant response rating (purple nutsedge; [4]): 0 | Nutsedge plant response rating (purple nutsedge; [5]): 0 | Nutsedge plant response rating (purple nutsedge; [6]): 0 | Plant response rating, Nutsedge (purple nutsedge; [7]): 0 | Nutsedge plant response rating (purple nutsedge; [8]): 0 | Rape plant response rating (rape; [1]): 2 | Rape plant response rating (rape; [2]): 0 | Rape plant response rating (0 to 10 scale) (rape; [3]): 0 | Rape plant response rating (rape; [4]): 6 | Rape plant response rating (rape; [5]): 9 | Rape plant response rating (rape; [6]): 1 | Plant response rating, Rape (rape; [7]): 3 | Rape plant response rating (rape; [8]): 4
